Records with an inconclusive call do not appear. Calls of active or inactive are those of the source.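 The calls were made as follows: active = compounds whose half-maximal effective concentration EC50 against measles virus is under 10 µM; inactive = the rest, inconclusive results apart.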
Test system: Vero cells, measles virus yield reduction, TCID50, 36 h
Assay: measles virus yield reduction and host cell toxicity, dose response, EC50 and CC50 (AID 815)
Conditions: for CC50: measured here: cytotoxicity, viable cells

O=C(Nc1ccc(S(=O)(=O)N2CCCC2)cc1)c1ccc(C(F)(F)F)cc1[N+](=O)[O-]
EC50: > 75 µM (inactive) | CC50: > 300 µM

Cn1nc(C(F)(F)F)cc1C(=O)Nc1ccc(S(=O)(=O)N2CCCC2)cc1N
EC50: > 75 µM (inactive) | CC50: > 300 µM

Cn1nc(C(F)(F)F)cc1C(=O)Nc1ccc(S(=O)(=O)N2CCCCC2C(=O)O)cc1 (stereo not drawn)
EC50: > 75 µM (inactive) | CC50: > 300 µM

Cn1nc(C(F)(F)F)cc1C(=O)Nc1ccc(S(=O)(=O)N2CCCC2)cc1O
EC50: > 75 µM (inactive) | CC50: 288 µM

O=C(Nc1ccc(S(=O)(=O)N2CCCC2)cc1)c1nc2ccccc2s1
EC50: > 75 µM (inactive) | CC50: > 300 µM

Cn1nc(C(F)(F)F)cc1C(=O)Nc1ccc(S(=O)(=O)N2CCC[C@H]2C(=O)OC(=O)c2ccccc2)cc1
EC50: 14 µM (inactive) | CC50: 100 µM

O=C(Nc1ccc(S(=O)(=O)N2CCCC2)cc1)c1ccc(F)cc1
EC50: > 75 µM (inactive) | CC50: > 300 µM

Cn1nc(C(C)(C)C)cc1C(=O)Nc1ccc(S(=O)(=O)N2CCCC2)cc1
EC50: 25 µM (inactive) | CC50: 140 µM

COc1ccc(Br)c(C(=O)Nc2ccc(S(=O)(=O)N3CCCC3)cc2)c1
EC50: > 75 µM (inactive) | CC50: > 300 µM

Cn1nc(C(F)(F)F)cc1C(=O)Nc1ccc(S(=O)(=O)N2CCNCC2)cc1
EC50: 28 µM (inactive) | CC50: 126 µM

Cn1nc(C(F)(F)F)cc1C(=O)Nc1ccc(S(=O)(=O)N2CCCCC2)cc1
EC50: < 2.3 µM | CC50: > 300 µM

Cn1nc(C(F)(F)F)cc1C(=O)Nc1ccc(S(=O)(=O)N2CCC[C@H]2C(=O)O)cc1
EC50: 23 µM (inactive) | CC50: > 300 µM

O=C(Nc1ccc(S(=O)(=O)N2CCCC2)cc1)c1ccccc1C(F)(F)F
EC50: > 75 µM (inactive) | CC50: > 300 µM

O=C(Nc1ccc(S(=O)(=O)N2CCCC2)cc1)c1cccs1
EC50: > 75 µM (inactive) | CC50: > 300 µM

O=C(Nc1ccc(S(=O)(=O)N2CCCC2)cc1)c1ccc([N+](=O)[O-])cc1Cl
EC50: > 75 µM (inactive) | CC50: > 300 µM

O=C(Nc1ccc(S(=O)(=O)N2CCCC2)cc1)c1cc(C(F)(F)F)ccc1F
EC50: > 75 µM (inactive) | CC50: 76 µM

O=C(Nc1ccc(S(=O)(=O)N2CCCC2)cc1)c1cccc(C(F)(F)F)c1
EC50: > 75 µM (inactive) | CC50: > 300 µM

Cn1nc(C(F)(F)F)cc1C(=O)Cc1ccc(S(=O)(=O)N2CCCC2)cc1
EC50: 15.5 µM (inactive) | CC50: > 300 µM

O=C(Nc1ccc(S(=O)(=O)N2CCCC2)cc1)c1nccn1-c1ccccc1C(F)(F)F
EC50: 65 µM (inactive) | CC50: > 300 µM

Cn1nc(C(F)(F)F)cc1C(=O)Nc1ccc(S(=O)(=O)N2CCOCC2)cc1
EC50: 43 µM (inactive) | CC50: > 300 µM

Nc1ccc(C(=O)Nc2ccc(S(=O)(=O)N3CCCC3)cc2)c(Cl)c1
EC50: > 75 µM (inactive) | CC50: > 300 µM

Cn1nc(C(F)(F)F)cc1C(O)Cc1ccc(S(=O)(=O)N2CCCC2)cc1 (stereo not drawn)
EC50: 41 µM (inactive) | CC50: > 300 µM

Cc1cc(CNc2ccc(S(=O)(=O)N3CCCC3)cc2)n(C)n1
EC50: > 75 µM (inactive) | CC50: > 300 µM

Cc1nc(C(F)(F)F)ccc1C(=O)Nc1ccc(S(=O)(=O)N2CCCC2)cc1
EC50: > 75 µM (inactive) | CC50: > 300 µM

O=C(Nc1ccc(S(=O)(=O)N2CCCC2)cc1)c1ccc(C(F)(F)F)cc1
EC50: 48 µM (inactive) | CC50: > 300 µM

Cn1nc(C(F)(F)F)cc1COc1ccc(S(=O)(=O)N2CCCC2)cc1
EC50: > 75 µM (inactive) | CC50: > 300 µM

O=C(Nc1ccc(S(=O)(=O)N2CCCC2)cc1)c1ccco1
EC50: > 75 µM (inactive) | CC50: > 300 µM

O=C(Nc1ccc(S(=O)(=O)N2CCCC2)cc1)c1cc(C(F)(F)F)nn1Cc1ccccc1
EC50: > 75 µM (inactive) | CC50: 37 µM

Cc1cc(C(=O)Nc2ccc(S(=O)(=O)N3CCCC3)cc2)n(C)n1
EC50: > 75 µM (inactive) | CC50: > 300 µM

— PubChem BioAssay AID815 (Emory University Molecular Libraries Screening Center, 2007)
